# In PMC9783868, “Indoline-5-Sulfonamides: A Role of the Core in Inhibition of Cancer-Related Carbonic Anhydrases, Antiproliferative Activity and Circumventing of Multidrug Resistance” (Pharmaceuticals, 2022):
# Like-named read-outs stand apart in the source and are kept apart here.
# Tests used:
# MCF7 cells = assay: Antiproliferative activity, MTT test; assay type: cell-based; details: Homo sapiens, MTT assay after 72 h exposure
# Description: A series of synthesized indoline-5-sulfonamides was tested on the MCF7 cancer cell line under normoxia and hypoxia using the MTT test.
# The MDR subline K562/4 [77] (kind gift of Dr. Alexander Shtil, Blokhin N.N. National Medical Research Center of Oncology) was obtained by stepwise selection of K562 cells for survival under continuous exposure to Dox. This subline expresses the MDR1 gene and functional P-gp and is characterized by a high resistance index for Dox. […] Cells in the logarithmic phase of growth were used in the experiments. The growth inhibitory activity of compounds was assessed by the MTT test based on the metabolism of the MTT reagent (3-[4,5-dimethylthiazol-2-yl]-2,5-diphenyltetrazolium bromide) (Applichem) in living cells, with modifications as described previously in [49]. Compounds at different concentrations in 100 μL of the appropriate medium were added, and the cells were grown for 72 h. The hypoxia (1% O2) conditions were simulated in Binder multigas incubator, as described in [49]. After incubation with compounds, the medium was removed, the MTT reagent that was dissolved in the medium was added to the final concentration of 0.2 mg/mL to each well, and the incubation was performed for 2 h. Then the cell supernatants were removed, and purple formazan crystals were dissolved in 100% DMSO (350 μL per well). Culture plates were gently shaken, and the absorbance was measured at 571 nm with a reference wavelength of 630 nm on a MultiScan reader (ThermoFisher, Waltham, MA, USA). The viability of the cells was expressed as a percentage of the control. Dose-response curves were analyzed by regression analysis using sigmoid curves (Log(concentration) vs. normalized absorbance).
# All results were reported as means ± SD. One-way analysis of variance was used for the analysis of data. Differences were defined as significant at p < 0.05. GraphPad Prism7 (GraphPad Software, San Diego, CA, USA) was used for the determination of the half-maximal inhibitory concentration (IC50) values.
# hCA II = biological target: T1, hCA II (Homo sapiens, UniProt P00918); assay: CA inhibition, stopped-flow CO2 hydration assay; assay type: biochemical; details: stopped-flow technique; mean from three assays
# T1 construct: made in house
# Description: (§1) The CO2 hydration activity of the four hCA isoforms was monitored using an Applied Photophysics stopped-flow instrument. Phenol red (at a concentration of 0.2 mM) was used as an indicator, working at the absorbance maximum of 557 nm, with 10 mM HEPES (pH 7.4) as a buffer, and 20 mM NaClO4 (for maintaining constant the ionic strength), following the initial rates of the CA-catalyzed CO2 hydration reaction for a period of 10–100 s. To determine the kinetic parameters by Lineweaver-Burk plots and the inhibition constants, a concentration of CO2 between 1.7 to 17 mM was used. At least six measurements of the original 5–10% reaction were used to assess the initial velocity for each inhibitor. The uncatalyzed rates were determined and detracted from the total observed rates. Stock inhibitor solutions (10–100 mM) were prepared in distilled-deionized water, and dilutions up to 0.1 nM were done with the buffer test. […] The inhibition constants were obtained by non-linear least-squares methods using PRISM 6 and the Cheng-Prusoff equation, as reported earlier, and represent the mean from at least three different determinations.
# hCA I = biological target: T2, hCA I (Homo sapiens, UniProt P00915); assay: CA inhibition, stopped-flow CO2 hydration assay; assay type: biochemical; details: stopped-flow technique; mean from three assays
# T2 construct: made in house
# Description: as §1
# hCA XII = biological target: T3, hCA XII (Homo sapiens, UniProt O43570); assay: CA inhibition, stopped-flow CO2 hydration assay; assay type: biochemical; details: stopped-flow technique; mean from three assays
# T3 construct: made in house
# Description: as §1
# hCA IX = biological target: T4, hCA IX (Homo sapiens, UniProt Q16790); assay: CA inhibition, stopped-flow CO2 hydration assay; assay type: biochemical
# T4 construct: made in house
# Description: as §1
# K562/4 cells = assay: Reversal of chemoresistance to Dox, MTT test; assay type: cell-based, human
# Excerpt: Earlier, Kopecka and colleagues have shown that CA XII can interact with P-gp and influence its activity. Subsequently, silencing or inhibition of CA XII by chemical agents may restore the sensitivity to Dox of resistant K562 and other tumor cells. Given the potent inhibition of 4f against CA XII and the activity of 4e against K562, we examined their ability to reverse the chemoresistance of K562/4 with P-gp to Dox.
# The MCF7 human breast, A431 human skin cancer cells and K562 (ATCC CCL-243) chronic myelogenous leukemia cells were obtained from the ATCC collection. The MDR subline K562/4 [77] (kind gift of Dr. Alexander Shtil, Blokhin N.N. National Medical Research Center of Oncology) was obtained by stepwise selection of K562 cells for survival under continuous exposure to Dox. This subline expresses the MDR1 gene and functional P-gp and is characterized by a high resistance index for Dox. The MCF7 and A431 cells were cultured in standard 4.5 g/L glucose DMEM medium (Gibco) supplemented with 10% FCS (HyClone), 2 mM L-glutamine, 50 U/mL penicillin, 50 µg/mL streptomycin (PanEco), 100 µg/mL sodium pyruvate (Santa Cruz) at 37 °C, 5% CO2 and 80–85% humidity in NuAire incubator. Suspension myelogenous leukemia cells (K562, K562/4) were propagated in RPMI-1640 (PanEco) with 5% FCS (HyClone), 2 mM L-glutamine, 100 U/mL penicillin, and 100 µg/mL streptomycin at 37 °C, 5% CO2, and 80–85% humidity in Binder incubator. Cells in the logarithmic phase of growth were used in the experiments. The growth inhibitory activity of compounds was assessed by the MTT test based on the metabolism of the MTT reagent (3-[4,5-dimethylthiazol-2-yl]-2,5-diphenyltetrazolium bromide) (Applichem) in living cells, with modifications as described previously in [49]. Compounds at different concentrations in 100 μL of the appropriate medium were added, and the cells were grown for 72 h. The hypoxia (1% O2) conditions were simulated in Binder multigas incubator, as described in [49]. After incubation with compounds, the medium was removed, the MTT reagent that was dissolved in the medium was added to the final concentration of 0.2 mg/mL to each well, and the incubation was performed for 2 h. Then the cell supernatants were removed, and purple formazan crystals were dissolved in 100% DMSO (350 μL per well). Culture plates were gently shaken, and the absorbance was measured at 571 nm with a reference wavelength of 630 nm on a MultiScan reader (ThermoFisher, Waltham, MA, USA). The viability of the cells was expressed as a percentage of the control. Dose-response curves were analyzed by regression analysis using sigmoid curves (Log(concentration) vs. normalized absorbance).
# Figure 6 Susceptibility of resistant K562/4 line to combinations of Dox (25 µM) with indoline-5-sulfonamides 4e and 4f. […]
# T2 sequence (P00915 whole entry): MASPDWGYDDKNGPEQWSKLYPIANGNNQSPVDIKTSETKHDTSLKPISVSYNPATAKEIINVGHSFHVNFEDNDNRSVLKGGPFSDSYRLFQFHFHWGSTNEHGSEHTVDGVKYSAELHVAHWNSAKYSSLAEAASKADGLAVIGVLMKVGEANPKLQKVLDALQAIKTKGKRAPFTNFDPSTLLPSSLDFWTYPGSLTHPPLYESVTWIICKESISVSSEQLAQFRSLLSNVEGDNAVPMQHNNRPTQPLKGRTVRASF
# T3 sequence (O43570 25-354): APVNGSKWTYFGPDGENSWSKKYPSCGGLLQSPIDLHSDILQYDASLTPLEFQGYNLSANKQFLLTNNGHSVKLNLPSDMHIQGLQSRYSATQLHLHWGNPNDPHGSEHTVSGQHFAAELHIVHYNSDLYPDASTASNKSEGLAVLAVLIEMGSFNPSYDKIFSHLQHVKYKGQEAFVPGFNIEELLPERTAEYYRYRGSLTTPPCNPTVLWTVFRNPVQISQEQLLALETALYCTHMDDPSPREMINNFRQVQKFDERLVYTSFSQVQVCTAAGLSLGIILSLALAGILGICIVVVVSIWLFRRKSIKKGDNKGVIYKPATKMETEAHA
smiles,measurement,setting,value
"NS(=O)(=O)c1ccc2c(c1)CCN2C(=O)c1cccc(Cl)c1 [Compound 4f, 1-(3-Chlorobenzoyl)indoline-5-sulfonamide]",IC50,"MCF7 cells; hypoxia (1% O2), read-out: IC50 against MCF7 Cells, Hypoxia",12.9 ± 1.2 µM
same,IC50,"MCF7 cells; normoxia, read-out: IC50 against MCF7 Cells, Normoxia",24.5 ± 1.9 µM
same,melting point,,> 250 °C
same,Ki,hCA II,31.3 nM
same,Ki,hCA I,304 nM
same,Ki,hCA XII,112 nM
same,fold higher activity against CA IX compared with 4e,"hCA IX; in vitro KI, 4f vs 4e",~10 fold
same,Ki,"hCA IX; stopped-flow technique, mean from three assays",141 nM
same,effect of combination with Dox on viable K562/4 cells,K562/4 cells; combination with Dox (25 µM),decline of viable K562/4 cells
same,cytotoxic activity against MDR subline K562/4 as monoagent,K562/4 cells; monoagent,low cytotoxic activity
